Source: patent US20230346961A1, “GLP-1 AND GIP RECEPTOR CO-AGONISTS” (Novo Nordisk A/S, priority 2020, published 2023)
Starred links: 1 amine or outer side, 2 acyl side, 3 side chain; linkers in the order of their positions; H or OH if unused. Non-standard residues stand in square brackets, D forms with d. Residues, ends and D or L forms follow the SMILES beside them. Groups on a side chain read outwards from the residue. *: point of attachment. C18 diacid = O=C(O)CCCCCCCCCCCCCCCCC(=O)*; γGlu = O=C(O)[C@H](CCC(=O)[*:2])N[*:1]; εLys = N[C@@H](CCCCN[*:1])C(=O)[*:2]; Aib = CC(C)(N)C(=O)O

Experiments:
human GLP-1 receptor = human GLP-1 receptor (Homo sapiens, UniProt P43220); assay: cell-based; conditions: hGLP-1R
mouse GIP receptor = target: T1, mouse GIP receptor (Mus musculus, UniProt Q0P543); assay: cell-based
T1 sequence (Q0P543 19-460): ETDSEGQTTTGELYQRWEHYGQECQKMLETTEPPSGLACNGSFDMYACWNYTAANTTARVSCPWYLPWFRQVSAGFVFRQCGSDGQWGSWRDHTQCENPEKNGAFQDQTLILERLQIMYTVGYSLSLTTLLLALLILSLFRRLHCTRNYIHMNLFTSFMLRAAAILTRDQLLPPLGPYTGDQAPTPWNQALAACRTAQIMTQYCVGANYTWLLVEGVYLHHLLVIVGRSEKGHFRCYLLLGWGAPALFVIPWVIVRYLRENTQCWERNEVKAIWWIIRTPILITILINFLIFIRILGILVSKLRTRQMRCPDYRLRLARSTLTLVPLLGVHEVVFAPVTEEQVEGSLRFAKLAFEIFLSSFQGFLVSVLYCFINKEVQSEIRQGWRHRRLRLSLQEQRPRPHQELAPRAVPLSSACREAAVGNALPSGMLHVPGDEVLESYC

mouse GLP-1 receptor = target: T2, mouse GLP-1 receptor (Mus musculus, UniProt O35659)
T2 sequence (O35659 22-463): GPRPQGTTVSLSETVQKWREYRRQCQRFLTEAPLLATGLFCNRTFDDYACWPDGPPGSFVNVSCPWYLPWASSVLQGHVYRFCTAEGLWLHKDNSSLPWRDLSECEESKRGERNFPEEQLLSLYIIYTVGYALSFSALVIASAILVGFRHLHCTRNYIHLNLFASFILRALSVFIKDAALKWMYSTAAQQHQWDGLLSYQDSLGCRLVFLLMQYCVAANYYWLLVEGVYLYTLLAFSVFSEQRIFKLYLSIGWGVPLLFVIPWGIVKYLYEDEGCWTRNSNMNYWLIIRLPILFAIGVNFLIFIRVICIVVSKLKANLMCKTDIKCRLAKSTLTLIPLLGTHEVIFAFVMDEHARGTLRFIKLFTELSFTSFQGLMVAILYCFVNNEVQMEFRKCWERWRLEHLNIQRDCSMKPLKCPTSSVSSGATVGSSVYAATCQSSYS

Sequence of human GLP-1 receptor (P43220 24-463): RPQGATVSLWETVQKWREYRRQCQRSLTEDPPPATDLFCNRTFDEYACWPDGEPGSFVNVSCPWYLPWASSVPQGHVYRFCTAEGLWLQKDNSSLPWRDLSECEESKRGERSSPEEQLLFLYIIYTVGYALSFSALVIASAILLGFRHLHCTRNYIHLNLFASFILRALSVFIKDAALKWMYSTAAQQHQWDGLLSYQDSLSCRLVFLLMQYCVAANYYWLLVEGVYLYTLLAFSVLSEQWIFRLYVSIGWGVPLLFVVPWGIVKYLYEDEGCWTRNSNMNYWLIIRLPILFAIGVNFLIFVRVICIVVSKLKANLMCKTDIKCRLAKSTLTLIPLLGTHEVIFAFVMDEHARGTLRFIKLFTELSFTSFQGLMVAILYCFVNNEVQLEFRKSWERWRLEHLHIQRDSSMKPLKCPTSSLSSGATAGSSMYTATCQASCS

Compound: CC[C@H](C)[C@H](NC(=O)[C@H](CO)NC(=O)[C@H](Cc1ccc(O)cc1)NC(=O)[C@H](CC(=O)O)NC(=O)[C@H](CO)NC(=O)[C@@H](NC(=O)[C@H](Cc1ccccc1)NC(=O)[C@@H](NC(=O)CNC(=O)[C@H](CCC(=O)O)NC(=O)C(C)(C)NC(=O)[C@@H](N)Cc1ccc(O)cc1)[C@@H](C)O)[C@@H](C)O)C(=O)N[C@@H](Cc1ccc(O)cc1)C(=O)N[C@@H](CC(C)C)C(=O)N[C@@H](CC(=O)O)C(=O)N[C@@H](CCCCN)C(=O)N[C@@H](CCC(N)=O)C(=O)N[C@@H](C)C(=O)N[C@@H](C)C(=O)NC(C)(C)C(=O)N[C@@H](CCC(=O)O)C(=O)N[C@@H](Cc1ccccc1)C(=O)N[C@H](C(=O)N[C@@H](CC(N)=O)C(=O)N[C@@H](Cc1c[nH]c2ccccc12)C(=O)N[C@@H](CC(C)C)C(=O)N[C@@H](CC(C)C)C(=O)N[C@@H](C)C(=O)NCC(=O)NCC(=O)N1CCC[C@H]1C(=O)N[C@@H](CO)C(=O)N[C@@H](CO)C(=O)NCC(=O)N[C@@H](C)C(=O)N1CCC[C@H]1C(=O)N1CCC[C@H]1C(=O)N1CCC[C@H]1C(=O)N[C@@H](CO)C(=O)N[C@@H](CCCCNC(=O)[C@@H](N)CCCCNC(=O)[C@@H](N)CCCCNC(=O)CC[C@H](NC(=O)CCCCCCCCCCCCCCCCC(=O)O)C(=O)O)C(N)=O)C(C)C [Compound 10]
- EC50 (human GLP-1 receptor; CRE Luc 0% HSA EC50, 0% HSA): 0.0182 nM
- EC50 (human GLP-1 receptor; CRE Luc 1% HSA EC50, 1% HSA): 0.298 nM
- EC50 (mouse GIP receptor): 0.259 nM
- EC50 (mouse GLP-1 receptor): 0.0021 nM

Compound: CC[C@H](C)[C@H](NC(=O)[C@H](CO)NC(=O)[C@H](Cc1ccc(O)cc1)NC(=O)[C@H](CC(=O)O)NC(=O)[C@H](CO)NC(=O)[C@@H](NC(=O)[C@H](Cc1ccccc1)NC(=O)[C@@H](NC(=O)CNC(=O)[C@H](CCC(=O)O)NC(=O)C(C)(C)NC(=O)[C@@H](N)Cc1ccc(O)cc1)[C@@H](C)O)[C@@H](C)CC)C(=O)N[C@@H](Cc1ccc(O)cc1)C(=O)N[C@@H](CC(C)C)C(=O)N[C@@H](CC(=O)O)C(=O)N[C@@H](CCCCN)C(=O)N[C@@H](CCC(N)=O)C(=O)N[C@@H](C)C(=O)N[C@@H](C)C(=O)NC(C)(C)C(=O)N[C@@H](CCCCNC(=O)[C@@H](N)CCCCNC(=O)[C@@H](N)CCCCNC(=O)CC[C@H](NC(=O)CCCCCCCCCCCCCCCCC(=O)O)C(=O)O)C(=O)N[C@@H](Cc1ccccc1)C(=O)N[C@H](C(=O)N[C@@H](CC(N)=O)C(=O)N[C@@H](Cc1c[nH]c2ccccc12)C(=O)N[C@@H](CC(C)C)C(=O)N[C@@H](CC(C)C)C(=O)N[C@@H](C)C(=O)NCC(=O)NCC(=O)N1CCC[C@H]1C(=O)N[C@@H](CO)C(=O)N[C@@H](CO)C(=O)NCC(=O)N[C@@H](C)C(=O)N1CCC[C@H]1C(=O)N1CCC[C@H]1C(=O)N1CCC[C@H]1C(=O)N[C@@H](CO)C(N)=O)C(C)C [Compound 11] (H-Y[Aib]EGTFISDYSIYLDKQAA[Aib]K([εLys-εLys-γGlu-C18 diacid])FVNWLLAGGPSSGAPPPS-NH2; N-terminus assumed)
- EC50 (human GLP-1 receptor; CRE Luc 0% HSA EC50, 0% HSA): 0.394 nM
- EC50 (mouse GIP receptor): 0.0137 nM
- EC50 (mouse GLP-1 receptor): 0.281 nM

Compound: CC[C@H](C)[C@H](NC(=O)[C@H](CO)NC(=O)[C@@H](NC(=O)[C@H](CC(=O)O)NC(=O)[C@H](CO)NC(=O)[C@@H](NC(=O)[C@H](Cc1ccccc1)NC(=O)[C@@H](NC(=O)CNC(=O)[C@H](CCC(=O)O)NC(=O)C(C)(C)NC(=O)[C@@H](N)Cc1c[nH]cn1)[C@@H](C)O)[C@@H](C)O)C(C)C)C(=O)N[C@@H](Cc1ccc(O)cc1)C(=O)N[C@@H](CC(C)C)C(=O)N[C@@H](CC(=O)O)C(=O)N[C@@H](CCCCN)C(=O)N[C@@H](CCC(N)=O)C(=O)N[C@@H](C)C(=O)N[C@@H](C)C(=O)NC(C)(C)C(=O)N[C@@H](CCCCNC(=O)[C@@H](N)CCCCNC(=O)[C@@H](N)CCCCNC(=O)CC[C@H](NC(=O)CCCCCCCCCCCCCCCCC(=O)O)C(=O)O)C(=O)N[C@@H](Cc1ccccc1)C(=O)N[C@H](C(=O)N[C@@H](CC(N)=O)C(=O)N[C@@H](Cc1c[nH]c2ccccc12)C(=O)N[C@@H](CC(C)C)C(=O)N[C@@H](CC(C)C)C(=O)N[C@@H](C)C(=O)NCC(=O)NCC(=O)N1CCC[C@H]1C(=O)N[C@@H](CO)C(=O)N[C@@H](CO)C(=O)NCC(=O)N[C@@H](C)C(=O)N1CCC[C@H]1C(=O)N1CCC[C@H]1C(=O)N1CCC[C@H]1C(=O)N[C@@H](CO)C(N)=O)C(C)C [Compound 12] (H-H[Aib]EGTFTSDVSIYLDKQAA[Aib]K([εLys-εLys-γGlu-C18 diacid])FVNWLLAGGPSSGAPPPS-NH2; N-terminus assumed)
- EC50 (human GLP-1 receptor; CRE Luc 0% HSA EC50, 0% HSA): 0.0029 nM
- EC50 (mouse GIP receptor): > 10 nM
- EC50 (mouse GLP-1 receptor): 0.0022 nM

Compound: CC[C@H](C)[C@H](NC(=O)[C@H](CO)NC(=O)[C@H](Cc1ccc(O)cc1)NC(=O)[C@H](CC(=O)O)NC(=O)[C@H](CO)NC(=O)[C@@H](NC(=O)[C@H](Cc1ccccc1)NC(=O)[C@@H](NC(=O)CNC(=O)[C@H](CCC(=O)O)NC(=O)C(C)(C)NC(=O)[C@@H](N)Cc1ccc(O)cc1)[C@@H](C)O)[C@@H](C)O)C(=O)N[C@@H](Cc1ccc(O)cc1)C(=O)N[C@@H](CC(C)C)C(=O)N[C@@H](CCC(=O)O)C(=O)N[C@@H](CCCCN)C(=O)N[C@@H](CCC(N)=O)C(=O)N[C@@H](C)C(=O)N[C@@H](C)C(=O)NC(C)(C)C(=O)N[C@@H](CCCCNC(=O)[C@@H](N)CCCCNC(=O)[C@@H](N)CCCCNC(=O)CC[C@H](NC(=O)CCCCCCCCCCCCCCCCC(=O)O)C(=O)O)C(=O)N[C@@H](Cc1ccccc1)C(=O)N[C@H](C(=O)N[C@@H](CC(N)=O)C(=O)N[C@@H](Cc1c[nH]c2ccccc12)C(=O)N[C@@H](CC(C)C)C(=O)N[C@@H](CC(C)C)C(=O)N[C@@H](C)C(=O)NCC(=O)NCC(=O)N1CCC[C@H]1C(=O)N[C@@H](CO)C(=O)N[C@@H](CO)C(=O)NCC(=O)N[C@@H](C)C(=O)N1CCC[C@H]1C(=O)N1CCC[C@H]1C(=O)N1CCC[C@H]1C(=O)N[C@@H](CO)C(N)=O)C(C)C [Compound 15] (H-Y[Aib]EGTFTSDYSIYLEKQAA[Aib]K([εLys-εLys-γGlu-C18 diacid])FVNWLLAGGPSSGAPPPS-NH2; N-terminus assumed)
- EC50 (human GLP-1 receptor; CRE Luc 0% HSA EC50, 0% HSA): 0.0061 nM
- EC50 (human GLP-1 receptor; CRE Luc 1% HSA EC50, 1% HSA): 0.128 nM
- EC50 (mouse GIP receptor): 0.0273 nM
- EC50 (mouse GLP-1 receptor): 0.0017 nM

Compound: CC[C@H](C)[C@H](NC(=O)[C@H](CO)NC(=O)[C@H](Cc1ccc(O)cc1)NC(=O)[C@H](CC(=O)O)NC(=O)[C@H](CO)NC(=O)[C@@H](NC(=O)[C@H](Cc1ccccc1)NC(=O)[C@@H](NC(=O)CNC(=O)[C@H](CCC(=O)O)NC(=O)C(C)(C)NC(=O)[C@@H](N)Cc1ccc(O)cc1)[C@@H](C)O)[C@@H](C)O)C(=O)N[C@@H](Cc1ccc(O)cc1)C(=O)N[C@@H](CC(C)C)C(=O)N[C@@H](CCC(=O)O)C(=O)N[C@@H](CCCCN)C(=O)N[C@@H](CCC(N)=O)C(=O)N[C@@H](C)C(=O)N[C@@H](C)C(=O)NC(C)(C)C(=O)N[C@@H](CCCCNC(=O)[C@@H](N)CCCCNC(=O)[C@@H](N)CCCCNC(=O)CC[C@H](NC(=O)CCCCCCCCCCCCCCCCC(=O)O)C(=O)O)C(=O)N[C@@H](Cc1ccccc1)C(=O)N[C@H](C(=O)N[C@@H](CC(N)=O)C(=O)N[C@@H](Cc1c[nH]c2ccccc12)C(=O)N[C@@H](CC(C)C)C(=O)N[C@@H](CC(C)C)C(=O)N[C@@H](C)C(=O)NCC(=O)NCC(=O)N1CCC[C@H]1C(=O)N[C@@H](CO)C(=O)N[C@@H](CO)C(=O)NCC(=O)N[C@@H](C)C(N)=O)C(C)C [Compound 18] (H-Y[Aib]EGTFTSDYSIYLEKQAA[Aib]K([εLys-εLys-γGlu-C18 diacid])FVNWLLAGGPSSGA-NH2; N-terminus assumed)
- EC50 (human GLP-1 receptor; CRE Luc 0% HSA EC50, 0% HSA): 0.0033 nM
- EC50 (human GLP-1 receptor; CRE Luc 1% HSA EC50, 1% HSA): 0.0899 nM
- EC50 (mouse GIP receptor): 0.0243 nM
- EC50 (mouse GLP-1 receptor): 0.002 nM
